Patent publication US7199286B2, “Plant-derived novel pathogen and SAR-induction chemical induced promoters, and fragments thereof” (Syngenta Participations AG, priority 1999, dated 2007)

System: NI16 promoter fragment 962 bp
Experiment: GUS florescence assay of promoter::GUS plants after SA application, NI16 962 bp fragment
Type: in vivo, Arabidopsis
Conditions: 5 mM SA spray
Source text: A binary promoter::reporter plasmid (pNOV2374) for Arabidopsis transformation was constructed. The regulatory/promoter sequence was fused to the GUS reporter gene (Jefferson et al. (1987) EMBO J 6: 3901-3907) by recombination using […] Technology according to the manufacturer's protocol as described in the Instruction Manual (LifeTechnologies, Rockville, Md.). The construct was then transformed into Agrobacterium tumefaciens strains by electroporation. pNOV2374 is a binary vector with a VS1 origin of replication, a copy of the Agrobacterium virg gene in the backbone, and a Basta® resistance selectable marker cassette between the left and right border sequences of the T-DNA. The Basta® selectable marker cassette comprises the Agrobacterium tumefaciens manopine synthase promoter (AtMas) (Barker et al., Plant Mol. Biol. 2, 335-350 (1983)) operably linked to the gene encoding Basta® resistance (i.e., the “BAR” gene, phosphinothricin acetyl transferase) (White et al., Nucl Acids Res 18: 1062 (1990)) and the 35S terminator. The AtMas promoter, the BAR coding sequence, and the 35S terminator are located at nt 4211 to nt 4679, nt 4680 to nt 5228, and nt 5263 to nt 5488, respectively, of pNOV2374. The vector contains […] recombination components, which were introduced into the binary vector backbone by ligating a blunt-ended cassette containing attR sites, ccdB, and a cholramphenicol resistance marker using the […] Vector Conversion System (LifeTechnologies, Rockville, Md.). The […] cassette was located between nt 126 and 1818 of pNOV2374. The promoter cassettes were inserted through an LR recombination reaction whereby the DNA sequence of pNOV2374 between nt 126 and nt 1818 were removed and replaced with the promoter of interest flanked by att sequences. […] The GIG gene (SEQ ID NO:29) contains the ST-LS1 intron from Solanum tuberosum at nt 385 to nt 576 of GUS (obtained from Dr. Stanton […], Purdue University, and described in Narasimhulu, et al. (1996) Plant Cell 8: 873-886.). […] The treatment was applied as a fine mist to the leaves. […] For quantitative analysis of promoter activity following induction treatments or in various Arabidopsis tissues and organs, GUS expression is measured florometrically. Tissue samples were harvested and ground in ice cold GUS extraction buffer (50 mM Na2HPO4 pH 7.0, 5 mM DTT, 1 mM Na2EDTA, 0.1% TritonX100, 0.1% sarcosyl). Ground samples were spun in a microfuge at 10,000 rpm for 15 minutes at 4° C. Following centrifugation, the supernatant was removed for the GUS assay and for a protein concentration determination. To measure GUS activity, the plant extract was assayed in GUS assay buffer (50 mM Na2HPO4 pH 7.0, 5 mM DTT, 1 mM Na2EDTA, 0.1% TritonX100, 0.1% sarcosyl, 1 mM 4-Methylumbelliferyl-beta-D-glucuronic acid dihydrate (MUG)), pre-warmed to 37° C. Reactions were incubated, and 100 uL aliquots were removed at 10 minute intervals over 30 minutes to stop the reaction by adding the 100 uL aliquots to tubes containing 900 uL of 2% Na2CO3. The stopped reactions were then read on a Tecan Spectroflourometer at 365 nm excitation and 455 emission wavelengths. Protein concentrations were determined using the BCA assay following the manufacturer's protocol. GUS activity is expressed as pmol MU/mg protein/min.

SMILES: O=C(O)c1ccccc1O [SA, salicylic acid]
- GUS Activity Induced by SA (2 h): 86.8 pmol/mg protein/min
- GUS activity Fold-change relative to T0 (uninduced) (2 h): 2.2 fold
- GUS Activity Induced by SA (4 h): 260.8 pmol/mg protein/min
- GUS activity Fold-change relative to T0 (uninduced) (4 h): 6.6 fold
- GUS Activity Induced by SA (8 h): 467.7 pmol/mg protein/min
- GUS Activity Induced by SA (24 h): 1457.5 pmol/mg protein/min
- GUS activity Fold-change relative to T0 (uninduced) (24 h): 36.7 fold
